Patent US6466814B1, “Method of magnetic resonance investigation” (Amersham Health AS, priority 1998, dated 2002)
Like-named read-outs stand apart in the source and are kept apart here.

How the values were obtained:
[1] = T1 in the blood after injection of the dissolved polarised agent; format: in vivo; conditions: 300 mg dissolved in 10 ml Ringers Solution, 37° C., pH 7.4, injected
Experimental: 300 mg of sterile Na2^13CO3 or NaH^13CO3 is placed inside a 10 ml plastic injection syringe. The gas inside the syringe is enriched with >20% […]. The syringe is placed inside a magnet (1-20 T) at a temperature of about 4 K (0.001-5 K) until thermodynamic equilibrium is reached.
The syringe is removed and transported to the subject located in the MRI magnet. 10 ml of sterile Ringers Solution (at 37° C., pH 7.4) is aspirated and injected at a rate of 10 ml/sec immediately after the high T1 agent has dissolved. 13C MRI is performed using a fast pulse sequence. T1 in the blood is about 20 s and the distribution of the agent is followed on the MR imager.

[2] = 13C-signal enhancement after low-field pumping and dissolution (solution experiments); format: physicochemical; conditions: 20 mg solid in 3 ml deuterium oxide, 40° C., holding field 0.4 T
Experimental: A sample of solid 1-^13C-2,2,2′,2′,2″,2″-hexadeuterotris(hydroxymethyl)nitromethane was subjected to a magnetic field of 6.56 T at a temperature of 2.5 K for 10 minutes. The sample was then removed from the centre of the magnet to the stray field (7 mT) for a duration 1 s and then returned to the magnet. After another 10 minutes the process was repeated one more.
(§1) A sample of solid 1-^13C-2,2,2′,2′,2″,2″-hexadeuterotris(hydroxymethyl)nitromethane (20 mg) was subjected to the above-mentioned pumping procedure (see Examples 5-7) and then in less than 1 second moved to a holding field of 0.4 T where also a sample of deuterium oxide (3 ml) at a temperature of 40° C., stirred by nitrogen bubbling, was kept. […] The sample was inserted into the spectrometer and a ^13C-spectrum was recorded. […]
as §1, with “2-^13C-2,2-bis(trideuteromethyl)-1,1,3,3-tetradeuteropropane-1,3-diol” for “1-^13C-2,2,2′,2′,2″,2″-hexadeuterotris(hydroxymethyl)nitromethane”

[3] = T1-values for the 13C atom (water solution and solid); format: physicochemical; conditions: 7 T
Description: (§2) T1-values for the ^13C atom in 1-^13C-2,2,2′,2′,2″,2″-hexadeuterotris(hydroxymethyl)nitromethane
(§3) T1-values for the ^13C atom in 2-^13C-2,2-bis(trideuteromethyl)-1,1,3,3-tetradeuteropropane-1,3-diol

[4] = T1-values for the 13C atom in human bloodplasma; format: physicochemical; conditions: 37° C., 7 T
Description: as §2, §3

[5] = solid
Description: Where Mmax is the magnetisation of the sample after complete relaxation at the final field.
This procedure can be repeated after the protons have repolarised again, successively building up the carbon polarisation until the spin-temperature of the two nuclei become the same. […] Generally fluorine relaxes even faster than protons and it would be possible to include a fluorine atom in the contrast agent molecule as an internal relaxation agent.
It is also possible to use quadrupolar nuclei for this process. […] The magnetic storage field must be large enough to avoid overlap of the resonances of the wanted nucleus and any rapidly relaxing quadrupolar nuclei. It is known that this phenomenon causes the rapid relaxation of frozen ^129Xe in a low field, when spin diffusion to the quadrupolar ^131Xe becomes efficient.

| SMILES | T1 in the blood [1] | Time until a clear solution was obtained [2] | T1-value for the 13C atom ([3]; H2O, air saturated, 37° C.) [s] | T1-value for the 13C atom ([3]; H2O, degassed, 37° C.) [s] | T1-value for the 13C atom ([3]; Solid, 2.5 K) [s] | T1-value for the 13C atom ([3]; Solid, 20° C.) [s] | T1-value for the 13C atom [4] [s] | further results |
| --- | --- | --- | --- | --- | --- | --- | --- | --- |
| O=[13C]([O-])[O-].[Na+].[Na+] [Na2^13CO3] | about 20 s |  |  |  |  |  |  |  |
| [2H]C([2H])(O)[13C]([N+](=O)[O-])(C([2H])([2H])O)C([2H])([2H])O [1-^13C-2,2,2′,2′,2″,2″-hexadeuterotris(hydroxymethyl)nitromethane] |  | less than 1 S | 95 | 102 | 198000 | 1320 | 60 | T1-value for the 13C atom ([3]; Solid, −30° C.): 2820 s |
| [2H]C([2H])([2H])[13C](C([2H])([2H])[2H])(C([2H])([2H])O)C([2H])([2H])O [2-^13C-2,2-bis(trideuteromethyl)-1,1,3,3-tetradeuteropropane-1,3-diol] |  | less than 1 S | 133 | 157 | 162000 | 237 | 96 |  |
| O=[13C]([O-])O.[Na+] [NaH^13CO3, sodium bicarbonate—^13C] | about 20 s |  |  |  |  |  |  |  |
| CC(=O)[O-].[Na+] [sodium acetate] |  |  |  |  |  |  |  | T1,0 (time constant for relaxation at no external magnetic field) ([5]; carbonyl carbon): about 5 seconds; T1 of the carbonyl carbon ([5]; at 7 T): 1700 s; T1 of the carbonyl carbon ([5]; room temperature): 1700 s; T1 of the protons ([5]; room temperature): 31 s; T1 of the sodium ions ([5]; room temperature): 1.7 s |
